Holding throughout (experiment): growth of human tumour cells (NCI), 48 h
Test [1] relates to NCI-H23.
For test [2], the system named is LOX IMVI.
The test system of test [3] is PC-3.
Test [4] deals with HOP-92.
The subject of test [5] is MCF7.
The test system of test [6] is OVCAR-8.
The test system of test [7] is HOP-62.
The subject of test [8] is DU-145.
The test system of test [9] is HCC 2998.
The subject of test [10] is OVCAR-3.
The test system of test [11] is BT-549.
For test [12], the system named is KM12.
The subject of test [13] is EKVX.
Test [14] relates to COLO 205.
Test [15] deals with SK-MEL-2.
The test system of test [16] is Malme-3M.
Test [17] has as its system OVCAR-4.
The test system of test [18] is K562.
The test system of test [19] is SK-OV-3.
In test [20] the test system is A498.

The structures appear in SMILES notation.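 A five-concentration, 48-hour dose response in 96-well plates underlies each endpoint, interpolated linearly between surrounding concentrations. Here, GI50 denotes the concentration required for 50% inhibition of growth.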 The source made the active and inactive calls. No stated cut-off is given here; in the data, active = GI50 up to about 1.1 µM and inactive = higher. A value given as a limit tells only on which side of the number the result lay.

Take `COc1ccccc1C(=O)c1ccc2ccccc2c1`: the GI50 in [1] is 40 µM (inactive); in test [2] it was 12.6 µM (inactive); in [3] it was 23.8 µM (inactive); in test [4], 18.7 µM (inactive); in [5], 8.15 µM (inactive); in [6], 26.4 µM (inactive). The GI50 is 33.7 µM (inactive) in test [7]; 20.6 µM (inactive) in test [8]; 51.8 µM (inactive) in test [9]; 9.4 µM (inactive) in test [10]; 16.1 µM (inactive) in [11]; 4.34 µM (inactive) in [12]. Besides, the GI50 was 16.5 µM (inactive) in test [13]; 20.4 µM (inactive) in test [14]; 14.1 µM (inactive) in test [15]; 10.8 µM (inactive) in test [16]; 36 µM (inactive) in test [17]; 4 µM (inactive) in [18].
With `CCN1C(=O)C(=C/C=C/c2ccc(N(CC)CC)cc2)C(=O)N(CC)C1=S`, the GI50 in test [1] was > 100 µM (inactive); in [2], > 100 µM (inactive); in test [3], 72.4 µM (inactive); in test [19] it was > 100 µM (inactive); in test [4] it was > 100 µM (inactive); in test [5], > 100 µM (inactive). Further, the GI50 is > 100 µM (inactive) in test [6]; 21.7 µM (inactive) in [7]; > 100 µM (inactive) in [8]; > 100 µM (inactive) in test [9]; 18 µM (inactive) in test [10]; 40.7 µM (inactive) in test [11]. The GI50 in test [12] is > 100 µM (inactive); in test [13] it was > 100 µM (inactive); in test [14], > 100 µM (inactive); in [15], 68.5 µM (inactive); in [17], > 100 µM (inactive); in test [18] it was 83.9 µM (inactive).
`CC(=O)Nc1ccc(CNc2cc(=O)[nH]c(=O)[nH]2)cc1`: the GI50 in test [1], in [2], in test [3], in [19], in [4] and in test [5] was > 100 µM (inactive) each time. The GI50 in [6], in [7], in test [8], in [9], in test [10] and in [11] was > 100 µM (inactive) in each case. Also, the GI50 in test [12], in test [13], in test [14], in test [15], in test [16] and in test [17] was > 100 µM (inactive) throughout. Moreover, in test [18], the GI50 was > 100 µM (inactive).
On to `CCOC(=O)n1[nH]c(=O)n(-c2ccccc2)c1=O`, for which the GI50 in test [1], in test [2], in test [3], in [19], in test [5] and in [6] was > 100 µM (inactive) each time. For the same molecule, the GI50 in test [7], in [8], in [9], in test [10], in test [11] and in test [12] was > 100 µM (inactive) each time. For the same molecule, the GI50 in test [13], in [14], in [15], in test [16], in [17] and in test [18] was > 100 µM (inactive) throughout.
Take `CC(=O)O[C@H]1CC[C@@]2(C)C(=CC[C@H]3[C@@H]4C/C(=C\c5ccc(N(C)C)cc5)[C@H](OC(C)=O)[C@@]4(C)CC[C@@H]32)C1`: the GI50 in test [20] was 18.9 µM (inactive); in test [1], 13.1 µM (inactive); in [2], 8.91 µM (inactive); in test [3] it was 4.41 µM (inactive); in [19], 43.4 µM (inactive); in test [5], 7.62 µM (inactive). Besides, the GI50 was 11.3 µM (inactive) in test [6]; 14.1 µM (inactive) in test [7]; 23.8 µM (inactive) in [8]; 8.93 µM (inactive) in [10]; 12 µM (inactive) in test [11]; 11.9 µM (inactive) in test [12]. In addition, the GI50 was 8.69 µM (inactive) in [13]; 4.54 µM (inactive) in test [14]; 8.53 µM (inactive) in [15]; 12.6 µM (inactive) in test [16]; 14.7 µM (inactive) in test [17]; 6.59 µM (inactive) in test [18].
Regarding `Clc1cc2ncn(C3CCCO3)c2cc1Cl` (stereo not given), the GI50 in test [1] was > 100 µM (inactive); in test [2], 54.2 µM (inactive); in test [3] it was 48.2 µM (inactive); in test [19], > 100 µM (inactive); in [4], 98.9 µM (inactive); in test [5] it was > 100 µM (inactive). The GI50 in test [6] is 77.8 µM (inactive); in test [7], > 100 µM (inactive); in [8], > 100 µM (inactive); in [9], 62.8 µM (inactive); in [10], 49.8 µM (inactive); in test [11], 19.5 µM (inactive). The GI50 is 28.9 µM (inactive) in test [12]; 27.5 µM (inactive) in test [13]; > 100 µM (inactive) in test [14]; > 100 µM (inactive) in [15]; > 100 µM (inactive) in [16]; > 100 µM (inactive) in test [17]. Besides, in test [18], the GI50 was 96.2 µM (inactive).
As for `Cn1cc(NC(=O)Nc2cc(C(=O)Nc3cc(C(=O)Nc4ccc(S(=O)(=O)O)c5cc(S(=O)(=O)O)ccc45)n(C)c3)n(C)c2)cc1C(=O)Nc1cc(C(=O)Nc2ccc(S(=O)(=O)O)c3cc(S(=O)(=O)O)ccc23)n(C)c1`, the GI50 in test [1] is > 100 µM (inactive); in [3], > 100 µM (inactive); in [19], > 100 µM (inactive); in [4] it was 51.9 µM (inactive); in test [5], > 100 µM (inactive); in test [6], > 100 µM (inactive). Also, the GI50 in test [7], in test [8], in test [9], in [10], in test [11] and in [12] was > 100 µM (inactive) in each case. Moreover, the GI50 in [13] is 34 µM (inactive); in test [14] it was > 100 µM (inactive); in [16], > 100 µM (inactive); in [17] it was > 100 µM (inactive); in test [18], > 100 µM (inactive).
`O=C(CN1CCCC1)Nc1ccc2sc3ccccc3c(=O)c2n1`: the GI50 in test [1] was 24.2 µM (inactive); in [2] it was 11 µM (inactive); in test [3], 14.7 µM (inactive); in [19], 20.7 µM (inactive); in test [4] it was 27.3 µM (inactive); in [5], 27.2 µM (inactive). The GI50 was 16.8 µM (inactive) in test [6]; 16.9 µM (inactive) in test [7]; 25.9 µM (inactive) in [8]; 13.9 µM (inactive) in test [9]; 42.9 µM (inactive) in test [10]; 25.3 µM (inactive) in test [11]. Further, the GI50 in test [12] is 19.5 µM (inactive); in test [13] it was 32.7 µM (inactive); in [14] it was 14 µM (inactive); in test [15] it was 21.1 µM (inactive); in test [17], 34.6 µM (inactive); in [18], 6.82 µM (inactive).
Consider `COC(=O)[C@H](Cc1ccccc1)NP(=O)(OCCC#N)OCC1OC(n2cc(C)c(=O)[nH]c2=O)CC1N=[N+]=[N-]` (stereo not given in full), for which the GI50 in [1], in test [2], in test [3], in test [19], in test [4] and in test [5] was > 100 µM (inactive) in each case. For the same molecule, the GI50 in [6], in test [7], in test [8], in test [9], in test [11] and in test [12] was > 100 µM (inactive) throughout. Moreover, the GI50 in test [13], in test [14], in [15], in test [16], in test [17] and in test [18] was > 100 µM (inactive) each time.
Consider `CN1CC2CC(C1)c1cccc(=O)n1C2` (stereo not given), for which the GI50 in [1], in test [2], in [3], in [19], in [4] and in test [5] was > 100 µM (inactive) in each case. The GI50 was > 100 µM (inactive) in test [6]; > 100 µM (inactive) in test [7]; > 100 µM (inactive) in test [8]; 0.253 µM (active) in test [9]; > 100 µM (inactive) in [10]; > 100 µM (inactive) in [11]. For the same molecule, the GI50 in [12], in [13], in test [14], in test [15], in [16] and in test [17] was > 100 µM (inactive) in each case.
In the case of `Cc1cn([C@H]2C=C[C@@H](CO)O2)c(=O)[nH]c1=O` [STAVUDINE], the GI50 in [1] is 776 µM (inactive); in test [2], > 1000 µM (inactive); in test [3], > 1000 µM (inactive); in test [19] it was > 1000 µM (inactive); in [4], 679 µM (inactive); in test [5] it was 617 µM (inactive). The GI50 in test [6] was > 1000 µM (inactive); in test [7], > 1000 µM (inactive); in test [8] it was > 1000 µM (inactive); in test [9], > 1000 µM (inactive); in test [10], > 1000 µM (inactive); in test [11], 327 µM (inactive). Moreover, the GI50 was > 1000 µM (inactive) in test [12]; > 1000 µM (inactive) in [13]; 410 µM (inactive) in test [14]; > 1000 µM (inactive) in test [15]; 361 µM (inactive) in test [16]; > 1000 µM (inactive) in [17]. The GI50 in [18] was > 1000 µM (inactive).
